Experimental data taken from PubChem BioAssay (NCI).
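Cultured in 96-well plates, cells were exposed to test compound for 48 hours across five concentrations. TGI is the concentration that stops growth completely.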

Key:
Experiment in all cases: growth of human tumour cells (NCI), 48 h
HCT-15 colon = tested on: HCT-15 colon
SF-539 CNS = tested on: SF-539 CNS
RXF-631 renal = tested on: RXF-631 renal
OVCAR-5 ovarian = tested on: OVCAR-5 ovarian
KM20L2 colon = tested on: KM20L2 colon
HCC-2998 colon = tested on: HCC-2998 colon
XF 498 CNS = tested on: XF 498 CNS
LOX IMVI melanoma = tested on: LOX IMVI melanoma
RPMI-8226 leukemia = tested on: RPMI-8226 leukemia
NCI-H23 lung = tested on: NCI-H23 lung
SF-268 CNS = tested on: SF-268 CNS
MOLT-4 leukemia = tested on: MOLT-4 leukemia
OVCAR-3 ovarian = tested on: OVCAR-3 ovarian
HL-60(TB) leukemia = tested on: HL-60(TB) leukemia
NCI-H226 lung = tested on: NCI-H226 lung
KM12 colon = tested on: KM12 colon
SN12C renal = tested on: SN12C renal
EKVX NSCLC = tested on: EKVX NSCLC
SF-295 CNS = tested on: SF-295 CNS
SK-MEL-28 melanoma = tested on: SK-MEL-28 melanoma
NCI-H522 lung = tested on: NCI-H522 lung
UO-31 renal = tested on: UO-31 renal
DLD-1 colon = tested on: DLD-1 colon
SW-620 colon = tested on: SW-620 colon
M14 melanoma = tested on: M14 melanoma
HOP-18 NSCLC = tested on: HOP-18 NSCLC
OVCAR-8 ovarian = tested on: OVCAR-8 ovarian
HCT-116 colon = tested on: HCT-116 colon
ACHN renal = tested on: ACHN renal
TK-10 renal = tested on: TK-10 renal
OVCAR-4 ovarian = tested on: OVCAR-4 ovarian
SK-MEL-5 melanoma = tested on: SK-MEL-5 melanoma
SNB-75 CNS = tested on: SNB-75 CNS
A549 NSCLC = tested on: A549 NSCLC
UACC-62 melanoma = tested on: UACC-62 melanoma
MALME-3M melanoma = tested on: MALME-3M melanoma
RXF 393 renal = tested on: RXF 393 renal
U251 CNS = tested on: U251 CNS
786-0 renal = tested on: 786-0 renal
SR leukemia = tested on: SR leukemia
UACC-257 melanoma = tested on: UACC-257 melanoma
CCRF-CEM leukemia = tested on: CCRF-CEM leukemia
DMS 273 small cell lung = tested on: DMS 273 small cell lung
SK-OV-3 ovarian = tested on: SK-OV-3 ovarian
A498 renal = tested on: A498 renal
K-562 leukemia = tested on: K-562 leukemia
IGROV1 ovarian = tested on: IGROV1 ovarian
LXFL 529 NSCLC = tested on: LXFL 529 NSCLC
CAKI-1 renal = tested on: CAKI-1 renal
HOP-92 NSCLC = tested on: HOP-92 NSCLC
HOP-62 NSCLC = tested on: HOP-62 NSCLC
M19-MEL melanoma = tested on: M19-MEL melanoma
DMS 114 small cell lung = tested on: DMS 114 small cell lung
SNB-78 CNS = tested on: SNB-78 CNS
HT29 colon = tested on: HT29 colon
SK-MEL-2 melanoma = tested on: SK-MEL-2 melanoma
SNB-19 CNS = tested on: SNB-19 CNS
COLO 205 colon = tested on: COLO 205 colon
NCI-H460 lung = tested on: NCI-H460 lung

With `O=[N+]([O-])c1cc([N+](=O)[O-])c(C(Cl)C(Cl)c2ccccc2)cc1C(Cl)C(Cl)c1ccccc1` (configuration not stated) the TGI (HCT-15 colon) was 3.12 µM, the TGI (SF-539 CNS) was 3.33 µM and the TGI (RXF-631 renal) was > 21.1 µM. It also gave a TGI (OVCAR-5 ovarian) of 4.43 µM, a TGI (KM20L2 colon) of 4.22 µM and a TGI (HCC-2998 colon) of 3.33 µM. The TGI (XF 498 CNS) was 3.55 µM, the TGI (LOX IMVI melanoma) was 3.57 µM and the TGI (RPMI-8226 leukemia) was 8.38 µM. The TGI (NCI-H23 lung) was 3.72 µM, the TGI (SF-268 CNS) was 4.02 µM and the TGI (MOLT-4 leukemia) was > 23.3 µM. The TGI (OVCAR-3 ovarian) was 5.06 µM, the TGI (HL-60(TB) leukemia) was > 100 µM and the TGI (NCI-H226 lung) was 5.18 µM. For the same compound, the TGI (KM12 colon) was 3.76 µM, the TGI (SN12C renal) was 3.49 µM and the TGI (EKVX NSCLC) was 4.28 µM. The TGI (SF-295 CNS) was 5.17 µM, the TGI (SK-MEL-28 melanoma) was 3.95 µM and the TGI (NCI-H522 lung) was 3.39 µM. For the same compound, the TGI (UO-31 renal) was 2.93 µM, the TGI (DLD-1 colon) was 3.27 µM and the TGI (SW-620 colon) was 3.46 µM. It also gave a TGI (M14 melanoma) of 2.93 µM, a TGI (HOP-18 NSCLC) of 3.53 µM and a TGI (OVCAR-8 ovarian) of 4.62 µM. For the same compound, the TGI (HCT-116 colon) was 2.69 µM, the TGI (ACHN renal) was 3.55 µM and the TGI (TK-10 renal) was 4.23 µM. For the same compound, the TGI (OVCAR-4 ovarian) was 7.28 µM, the TGI (SK-MEL-5 melanoma) was 3.29 µM and the TGI (SNB-75 CNS) was 5.17 µM. It also gave a TGI (A549 NSCLC) of 4.51 µM, a TGI (UACC-62 melanoma) of 3.7 µM and a TGI (MALME-3M melanoma) of 3.31 µM. For the same compound, the TGI (RXF 393 renal) was 2.73 µM, the TGI (U251 CNS) was 3.26 µM and the TGI (786-0 renal) was 3.12 µM. The TGI (SR leukemia) was > 100 µM, the TGI (UACC-257 melanoma) was 4.09 µM and the TGI (CCRF-CEM leukemia) was 5.96 µM. The TGI (DMS 273 small cell lung) was 4.08 µM, the TGI (SK-OV-3 ovarian) was 80.1 µM and the TGI (A498 renal) was 3.33 µM. The TGI (K-562 leukemia) was 3.58 µM, the TGI (IGROV1 ovarian) was 7.53 µM and the TGI (LXFL 529 NSCLC) was 2.87 µM. It also gave a TGI (CAKI-1 renal) of 3.25 µM, a TGI (HOP-92 NSCLC) of 3.26 µM and a TGI (HOP-62 NSCLC) of 11.9 µM. The TGI (M19-MEL melanoma) was 3.62 µM, the TGI (DMS 114 small cell lung) was 3.34 µM and the TGI (SNB-78 CNS) was 9.72 µM. For the same compound, the TGI (HT29 colon) was 4.67 µM, the TGI (SK-MEL-2 melanoma) was 3.86 µM and the TGI (SNB-19 CNS) was 6.53 µM. It also gave a TGI (COLO 205 colon) of 3.18 µM.
`CC(=O)OCc1c(C)c2ccccc2n1C(C)=O` was tested, and the TGI (SF-539 CNS) was > 100 µM, the TGI (RXF-631 renal) was 66.9 µM and the TGI (OVCAR-5 ovarian) was > 100 µM. For the same compound, the TGI (KM20L2 colon) was > 100 µM, the TGI (HCC-2998 colon) was > 100 µM and the TGI (XF 498 CNS) was 84.6 µM. The TGI (LOX IMVI melanoma) was > 100 µM, the TGI (NCI-H23 lung) was > 100 µM and the TGI (SF-268 CNS) was > 100 µM. For the same compound, the TGI (MOLT-4 leukemia) was 86.7 µM, the TGI (OVCAR-3 ovarian) was 62.8 µM and the TGI (HL-60(TB) leukemia) was 66.9 µM. The TGI (NCI-H226 lung) was > 100 µM, the TGI (KM12 colon) was > 100 µM and the TGI (SN12C renal) was > 100 µM. The TGI (EKVX NSCLC) was > 100 µM, the TGI (SF-295 CNS) was > 100 µM and the TGI (SK-MEL-28 melanoma) was > 100 µM. The TGI (NCI-H522 lung) was 39.2 µM, the TGI (UO-31 renal) was > 100 µM and the TGI (SW-620 colon) was > 100 µM. For the same compound, the TGI (M14 melanoma) was > 100 µM, the TGI (HOP-18 NSCLC) was > 100 µM and the TGI (OVCAR-8 ovarian) was > 100 µM. The TGI (HCT-116 colon) was > 100 µM, the TGI (ACHN renal) was 71 µM and the TGI (TK-10 renal) was > 100 µM. The TGI (OVCAR-4 ovarian) was > 100 µM, the TGI (SK-MEL-5 melanoma) was > 100 µM and the TGI (SNB-75 CNS) was > 100 µM. For the same compound, the TGI (A549 NSCLC) was > 100 µM, the TGI (UACC-62 melanoma) was > 100 µM and the TGI (MALME-3M melanoma) was 73.7 µM. The TGI (RXF 393 renal) was 75.3 µM, the TGI (U251 CNS) was > 100 µM and the TGI (786-0 renal) was > 100 µM. The TGI (SR leukemia) was 76.1 µM, the TGI (UACC-257 melanoma) was 89.8 µM and the TGI (CCRF-CEM leukemia) was 73.6 µM. The TGI (DMS 273 small cell lung) was 59.9 µM, the TGI (SK-OV-3 ovarian) was > 100 µM and the TGI (A498 renal) was > 100 µM. For the same compound, the TGI (K-562 leukemia) was 71.5 µM, the TGI (IGROV1 ovarian) was > 100 µM and the TGI (CAKI-1 renal) was > 100 µM. The TGI (HOP-92 NSCLC) was > 100 µM, the TGI (HOP-62 NSCLC) was > 100 µM and the TGI (M19-MEL melanoma) was > 100 µM. For the same compound, the TGI (DMS 114 small cell lung) was 47 µM, the TGI (HT29 colon) was > 100 µM and the TGI (SK-MEL-2 melanoma) was 43.3 µM. For the same compound, the TGI (SNB-19 CNS) was > 100 µM and the TGI (COLO 205 colon) was > 100 µM.
`CCCCCCCCCCNC(=S)OCCCC` showed a TGI (HCT-15 colon) of 39.7 µM, a TGI (SF-539 CNS) of 48.3 µM and a TGI (RXF-631 renal) of 87.1 µM. It also gave a TGI (OVCAR-5 ovarian) of 29 µM, a TGI (KM20L2 colon) of 37.7 µM and a TGI (HCC-2998 colon) of 57 µM. It also gave a TGI (XF 498 CNS) of 39.8 µM, a TGI (LOX IMVI melanoma) of 29.8 µM and a TGI (RPMI-8226 leukemia) of 34.9 µM. It also gave a TGI (NCI-H23 lung) of 53.9 µM, a TGI (SF-268 CNS) of 58.7 µM and a TGI (MOLT-4 leukemia) of 32.6 µM. For the same compound, the TGI (HL-60(TB) leukemia) was 31.2 µM, the TGI (KM12 colon) was 29.9 µM and the TGI (SN12C renal) was 38.2 µM. The TGI (EKVX NSCLC) was 65.8 µM, the TGI (SF-295 CNS) was > 100 µM and the TGI (SK-MEL-28 melanoma) was 72.2 µM. For the same compound, the TGI (NCI-H522 lung) was 42.4 µM, the TGI (UO-31 renal) was 60.3 µM and the TGI (DLD-1 colon) was 85.4 µM. It also gave a TGI (SW-620 colon) of 35.2 µM, a TGI (M14 melanoma) of 52.4 µM and a TGI (HOP-18 NSCLC) of 81.5 µM. The TGI (OVCAR-8 ovarian) was > 100 µM, the TGI (HCT-116 colon) was 34.7 µM and the TGI (ACHN renal) was 69.3 µM. The TGI (TK-10 renal) was 45 µM, the TGI (NCI-H460 lung) was 43.5 µM and the TGI (OVCAR-4 ovarian) was > 100 µM. For the same compound, the TGI (SK-MEL-5 melanoma) was 33.3 µM, the TGI (SNB-75 CNS) was 86.7 µM and the TGI (A549 NSCLC) was 73.6 µM. The TGI (UACC-62 melanoma) was 53.1 µM, the TGI (MALME-3M melanoma) was 54.8 µM and the TGI (RXF 393 renal) was 59.5 µM. For the same compound, the TGI (U251 CNS) was 37.5 µM, the TGI (786-0 renal) was 76.3 µM and the TGI (SR leukemia) was 38 µM. For the same compound, the TGI (UACC-257 melanoma) was 49.3 µM, the TGI (CCRF-CEM leukemia) was 37.6 µM and the TGI (DMS 273 small cell lung) was 42.3 µM. It also gave a TGI (SK-OV-3 ovarian) of 77.3 µM, a TGI (A498 renal) of 62.6 µM and a TGI (K-562 leukemia) of 36.6 µM. The TGI (IGROV1 ovarian) was 87.3 µM, the TGI (LXFL 529 NSCLC) was 55.6 µM and the TGI (CAKI-1 renal) was 61.1 µM. For the same compound, the TGI (HOP-92 NSCLC) was 41.1 µM, the TGI (HOP-62 NSCLC) was 68.7 µM and the TGI (M19-MEL melanoma) was > 100 µM. The TGI (DMS 114 small cell lung) was 45.8 µM, the TGI (SNB-78 CNS) was 88.4 µM and the TGI (HT29 colon) was 37.4 µM. For the same compound, the TGI (SK-MEL-2 melanoma) was 27.7 µM and the TGI (SNB-19 CNS) was > 100 µM.
